Test results reported in patent US20080048155A1, “Filter and Cyanine Compound” (priority 2004, published 2008).

Tests used:
Assay type in all cases: physicochemical
[1] = Decomposition temperature by thermogravimetric-differential thermal analysis (TG-DTA); conditions: temperature at which weight loss initiated
Method: Into 25 parts of acetic acid, 14.9 parts of 4,5-benzo-1-(2-methoxyethyl)-3,3-dimethyl-2-methyleneindoline and 4.5 parts of 2-chloro-1-formyl-3-hydroxymethylenecyclohexene were charged and the reaction mixture was heated up to 60° C. 5.1 parts of acetic anhydride was added dropwise thereto at 50° C. to 60° C. over 1 hour, and then stirred at 50° C. to 60° C. for further 2 hours to complete the condensation reaction. The reaction liquid was cooled to room temperature, and then filtered under aspiration to remove insoluble impurity. Subsequently, a solution of 8.8 parts of potassium(bis-trifluoromethanesulfonyl)imide in 40 parts of water was added dropwise to the reaction liquid. The precipitated crystal was filtered under aspiration, recrystallized from 70 parts of N,N-dimethylformamide, washed with 5 parts of methanol, then with water, and dried, to obtain 19.1 parts of the aforementioned Compound 31. Spectroscopic characteristics and decomposition temperature of the resultant Compound 31 were as follows. In this connection, decomposition temperature was shown by a value of the temperature at which weight loss initiated in a thermogravimetric-differential thermal analysis (TG-DTA).

[2] = Heat resistance stability test of filter (oven 80° C., 7 days); conditions: for Residual Ratio: (Absorbance after the test/Absorbance before the test)×100, 80° C., 7 days; for Absorbance (OD value) Initial: acryl resin filter on polyester film, at maximum absorption wavelength, before 80° C. test; for Absorbance (OD value) After 7 days: acryl resin filter, oven at 80° C. for 7 days
Method: (§1) In this connection, absorbance (OD value) was measured using a spectrophotometer UV-3150 made by Shimadzu Corp. When measurement was carried out using a solvent, the same solvent was measured as a blank, and when measurement was carried out using a filter, a filter which had the same composition except that only the cyanine compound was not contained was produced and measured as a blank.
In 18.8 parts of MEK, 0.4 parts of Compound 31 obtained in the above Example 5 was dissolved. To this solution, 80 parts of a resin solution prepared by dissolving 25 parts of an acryl-based resin (DIANAL (RTM) BR-80, made by Mitsubishi Rayon Co., Ltd.) in 75 parts of MEK was mixed to obtain a solution for coating. This solution was coated on a polyester film so that thickness becomes 2 to 4 μm, dried at 80° C. to obtain an optical filter of the present invention. This filter was used as a filter for absorbing near infrared rays.
The resultant filter for absorbing near infrared rays was left to stand in an oven at 80° C. for 7 days. Then absorbance (OD value) of the filter was measured with a spectrophotometer before and after the test, and residual ratio of the coloring matter was determined from the change of the absorbance (OD value) at the maximum absorption wavelength. Residual ratio=(Absorbance after the test/Absorbance before the test)×100

[3] = Wet heat resistance stability test of filter (85° C., 85% RH, 3 days); conditions: for Residual Ratio: absorbance after/before ×100, 85° C. and 85% RH, 3 days; for Absorbance (OD value) After 3 days / Absorbance (OD value) Initial: acryl resin filter; for Absorbance (OD value) After 3 days: 85° C. and 85% RH for 3 days; for Absorbance (OD value) Initial: before 85° C./85% RH test
Method: as §1
The filter obtained in Example 12 (the filter using Compound 31) was left to stand in a high temperature constant humidity chamber at 85° C. and 85% RH for 3 days. Absorbance (OD value) of the filter was measured with a spectrophotometer before and after the test, and residual ratio of the coloring matter was determined from the change of the absorbance (OD value) at the maximum absorption wavelength.
The filters obtained in Comparative Examples 1 to 6 were left to stand in a high temperature constant humidity chamber at 85° C. and 85% RH for 3 days. Then absorbances (OD values) of the filters were measured with a spectrophotometer before and after the test, and residual ratios of the coloring matters were determined from the changes of the absorbances (OD values) at each maximum absorption wavelength. The test using the filter obtained in Comparative Example 1 is termed as Comparative Example 7, the test using the filter obtained in Comparative Example 2 is termed as Comparative Example 8, the test using the filter obtained in Comparative Example 3 is termed as Comparative Example 9, the test using the filter obtained in Comparative Example 4 is termed as Comparative Example 10, the test using the filter obtained in Comparative Example 5 is termed as Comparative Example 11, and the test using the filter obtained in Comparative Example 6 is termed as Comparative Example 12.

[4] = Solubility to various solvents at room temperature; conditions: % by mass
Description: Further, solubility to various types of solvents at room temperature was as follows.
Further, solubility to various kinds of solvents at room temperature was as follows.

| Compound | Decomposition temperature [1] | Residual Ratio [2] | Absorbance (OD value) Initial [2] | Absorbance (OD value) After 7 days [2] | Residual Ratio [3] | Absorbance (OD value) After 3 days [3] | Absorbance (OD value) Initial [3] | Solubility, Cyclopentanone [4] | Solubility, Dichloromethane [4] | Solubility, Methyl ethyl ketone (MEK) [4] | Solubility, N,N-dimethylformamide [4] | Solubility, Cyclohexanone [4] |
| --- | --- | --- | --- | --- | --- | --- | --- | --- | --- | --- | --- | --- |
| COCCN1/C(=C/C=C2\CCCC(/C=C/C3=[N+](CCOC)c4ccc5ccccc5c4C3(C)C)=C2Cl)C(C)(C)c2c1ccc1ccccc21 [Compound 31] | 242.9 °C | 80.9% | 0.65 | 0.52 | 90.9% | 0.59 | 0.65 | 14.5% | 19.2% | 2.9% | 24.6% | – |
| COCCN1/C(=C/C=C2\CCC(/C=C/C3=[N+](CCOC)c4ccc5ccccc5c4C3(C)C)=C2Cl)C(C)(C)c2c1ccc1ccccc21 [Compound 46] | 213.0 °C | – | – | – | – | – | – | 3.1% | – | 0.2% | 3.4% | 0.8% |
| COCCN1/C(=C/C=C/C=C/C=C/C2=[N+](CCOC)c3ccccc3C2(C)C)C(C)(C)c2ccccc21 [Compound 30] | – | 89.7% | 0.83 | 0.74 | 97.3% | 0.80 | 0.83 | – | – | – | – | – |
| CCCCOCCN1/C(=C/C=C2\CCC(/C=C/C3=[N+](CCOCCCC)c4ccc5ccccc5c4C3(C)C)=C2Cl)C(C)(C)c2c1ccc1ccccc21 [Compound 47] | 186.0 °C | – | – | – | – | – | – | 0.9% | – | 1.6% | 4.5% | 2.6% |

The next lines start with the values.

| Decomposition temperature [1] | Residual Ratio [2] | Absorbance (OD value) Initial [2] | Absorbance (OD value) After 7 days [2] | Residual Ratio [3] | Absorbance (OD value) After 3 days [3] | Absorbance (OD value) Initial [3] | Solubility, Cyclopentanone [4] | Solubility, Dichloromethane [4] | Solubility, Methyl ethyl ketone (MEK) [4] | Solubility, N,N-dimethylformamide [4] | Solubility, Cyclohexanone [4] | Compound |
| --- | --- | --- | --- | --- | --- | --- | --- | --- | --- | --- | --- | --- |
| 224.6 °C | 87.2% | 0.83 | 0.72 | 99.9% | 0.82 | 0.83 | – | – | – | – | – | COCCN1/C(=C/C=C2\CCCC(/C=C/C3=[N+](CCOC)c4ccccc4C3(C)C)=C2Cl)C(C)(C)c2ccccc21 [Compound A] |
| – | 80.9% | 0.75 | 0.61 | 89.7% | 0.67 | 0.75 | – | – | – | – | – | CN1/C(=C/C=C/C=C/C=C/C2=[N+](C)c3ccc4ccccc4c3C2(C)C)C(C)(C)c2c1ccc1ccccc21 [Compound C] |
| – | 85.6% | 0.67 | 0.57 | 93.6% | 0.63 | 0.67 | – | – | – | – | – | CN1/C(=C/C=C2\CCCC(/C=C/C3=[N+](C)c4ccc5ccccc5c4C3(C)C)=C2Cl)C(C)(C)c2c1ccc1ccccc21 [Compound B] |
